From US6914045B2, “Glycopeptide antibiotics” (Wyeth Holdings Corporation, priority 2001, dated 2005)
Values after ≈ are worked out from the molar mass of the structure shown.

What was measured:
[1] = tested on: Staphylococcus aureus-SMITH (GC 4543); assay: acute lethal infection in mice; assay type: in vivo; conditions: acute lethal infection, female CD-1 mice, intraperitoneal challenge, intravenous 30 min. after infection, 7 day survival
Experimental: Methods for in Vivo Antibacterial Evaluation
The therapeutic effects of glycopeptide antibiotics of Formula I are determined against acute lethal infections with S. aureus (strain Smith), a penicillin resistant strain of S. pneumoniae (strain GC 1894), and a vancomycin resistant strain of E. fecalis (strain GC 6189 and GC 2246). Female mice, CD-1 (Charles River Laboratories), 20+/−2 gm, are challenged by intraperitoneal injection of sufficient bacteria (suspended in /trypticase Soy Broth or hog gastric mucin) to kill non-treated controls within 24-48 hr. Antibacterial agents, contained in 0.2 mL of saline or 5% dextrose solution, are administered intravenously 30 min. after infection. Five mice are treated at each dose level. The 7 day survival ratios from 3 separate tests are pooled for calculation of median effective dose (ED50).

Enterococcus sp. = assay: in vitro antibacterial evaluation, MIC by broth dilution; assay type: cell-based; conditions: broth dilution, 18 hours at 35° C.
Outline: (§1)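 MIC, the lowest antibiotic concentration preventing growth, was read across 64-0.06 μg/mL with 5×10^5 CFU/mL inoculum. Method followed NCCLS M7-A2 broth dilution using Mueller-Hinton II; Gram-positive strains covered recent methicillin-, penicillin- and/or vancomycin-resistant clinical isolates.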

Escherichia coli = assay: as above; assay type: cell-based
Outline: as §1

Streptococcus sp. = assay: as above; assay type: cell-based; conditions: broth dilution, 18 hours at 35° C.
Outline: as §1

Staphylococcus sp. = assay: as above; assay type: cell-based; conditions: broth dilution, 18 hours at 35° C.; for MIC Staphylococcus aureus (GC 1131): strain GC 1131
Outline: as §1

CC(c1ccccc1)C1NC(=O)CNC(=O)C(CO)NC(=O)C(C(O)C2CNC(=N)N2C2OC(CO)C(O)C(O)C2O)NC(=O)C(C(O)C2CNC(=N)N2)NC(=O)C(Cc2ccc(OC3OC(CO)C(OC4OC5COC(c6ccc7c(c6)OCO7)OC5C(O)C4O)C(O)C3O)cc2)NC1=O (stereo not drawn) [Example 143, Cyclo[glycyl-β-methylphenylalanyl-O-[4-O-[4,6-O-(1,3-benzodioxol-5-ylmethylene)hexopyranosyl]hexopyranosyl]tyrosyl-3-(2-iminoimidazolidin-4-yl)seryl-3-(3-hexopyranosyl-2-iminoimidazolidin-4-yl)serylseryl]]
median effective dose (ED50), Staphylococcus aureus-SMITH (GC 4543) [1]: 0.28 mg/kg
MIC Enterococcus avium (GC 4558) (Enterococcus sp.; Enterococcus avium (GC 4558)): 8 to 16 µg/mL
MIC Enterococcus faecalis (ATCC 29212) (Enterococcus sp.; Enterococcus faecalis (ATCC 29212)): 8 to 16 µg/mL
MIC Enterococcus faecalis (GC 2242) (Enterococcus sp.; Enterococcus faecalis (GC 2242)): 4 to 16 µg/mL
MIC Enterococcus faecalis (GC 2691) (Enterococcus sp.; Enterococcus faecalis (GC 2691)): 8 µg/mL (≈ 5.6 µM)
MIC Enterococcus faecalis (GC 3059) (Enterococcus sp.; Enterococcus faecalis (GC 3059)): 8 to 16 µg/mL
MIC Enterococcus faecalis (GC 4552) (Enterococcus sp.; Enterococcus faecalis (GC 4552)): 8 to 16 µg/mL
MIC Enterococcus faecalis (GC 4553) (Enterococcus sp.; Enterococcus faecalis (GC 4553)): 8 to 16 µg/mL
MIC Enterococcus faecalis (GC 4554) (Enterococcus sp.; Enterococcus faecalis (GC 4554)): 8 to 16 µg/mL
MIC Enterococcus faecalis (GC 6189) (Enterococcus sp.; Enterococcus faecalis (GC 6189)): 4 to 16 µg/mL
MIC Enterococcus faecium (GC 2243) (Enterococcus sp.; Enterococcus faecium (GC 2243)): 8 to 16 µg/mL
MIC Enterococcus faecium (GC 4556) (Enterococcus sp.; Enterococcus faecium (GC 4556)): 8 to 16 µg/mL
MIC Enterococcus faecium (GC 4557) (Enterococcus sp.; Enterococcus faecium (GC 4557)): 2 to 8 µg/mL
MIC Enterococcus faecalis (ATCC 29212) (Enterococcus sp.; strain ATCC 29212): 8 to 16 µg/mL
MIC Enterococcus faecalis (GC 2242) (Enterococcus sp.; strain GC 2242): 4 to 16 µg/mL
MIC Enterococcus faecium (GC 2243) (Enterococcus sp.; strain GC 2243): 8 to 16 µg/mL
MIC Enterococcus faecalis (GC 2691) (Enterococcus sp.; strain GC 2691): 8 µg/mL (≈ 5.6 µM)
MIC Enterococcus faecalis (GC 3059) (Enterococcus sp.; strain GC 3059): 8 to 16 µg/mL
MIC Enterococcus faecalis (GC 4552) (Enterococcus sp.; strain GC 4552): 8 to 16 µg/mL
MIC Enterococcus faecalis (GC 4553) (Enterococcus sp.; strain GC 4553): 8 to 16 µg/mL
MIC Enterococcus faecalis (GC 4554) (Enterococcus sp.; strain GC 4554): 8 to 16 µg/mL
MIC Enterococcus faecium (GC 4556) (Enterococcus sp.; strain GC 4556): 8 to 16 µg/mL
MIC Enterococcus faecium (GC 4557) (Enterococcus sp.; strain GC 4557): 2 to 8 µg/mL
MIC Enterococcus avium (GC 4558) (Enterococcus sp.; strain GC 4558): 8 to 16 µg/mL
MIC Enterococcus faecalis (GC 6189) (Enterococcus sp.; strain GC 6189): 4 to 16 µg/mL
MIC Escherichia coli (ATCC 25922) (Escherichia coli; strain ATCC 25922, 18 hours at 35° C.): >64 µg/mL
MIC Escherichia coli (GC 4559) (Escherichia coli; strain GC 4559, 18 hours at 35° C.): 64 µg/mL (≈ 44.8 µM)
MIC Escherichia coli (GC 4560) (Escherichia coli; strain GC 4560, 18 hours at 35° C.): 1 to 2 µg/mL
MIC Streptococcus agalactiae (GC 4564) (Streptococcus sp.; Streptococcus agalactiae (GC 4564)): 0.5 to 1 µg/mL
MIC Streptococcus pneumoniae (ATCC 6301) (Streptococcus sp.; Streptococcus pneumoniae (ATCC 6301)): 0.12 to 0.5 µg/mL
MIC Streptococcus pneumoniae (GC 1894) (Streptococcus sp.; Streptococcus pneumoniae (GC 1894)): <0.06 to 0.12 µg/mL
MIC Streptococcus pneumoniae (GC 4565) (Streptococcus sp.; Streptococcus pneumoniae (GC 4565)): 0.25 to 0.5 µg/mL
MIC Streptococcus pyogenes (GC 4563) (Streptococcus sp.; Streptococcus pyogenes (GC 4563)): 0.25 to 1 µg/mL
MIC Streptococcus pneumoniae (ATCC 6301) (Streptococcus sp.; strain ATCC 6301): 0.12 to 0.5 µg/mL
MIC Streptococcus pneumoniae (GC 1894) (Streptococcus sp.; strain GC 1894): <0.06 to 0.12 µg/mL
MIC Streptococcus pyogenes (GC 4563) (Streptococcus sp.; strain GC 4563): 0.25 to 1 µg/mL
MIC Streptococcus agalactiae (GC 4564) (Streptococcus sp.; strain GC 4564): 0.5 to 1 µg/mL
MIC Streptococcus pneumoniae (GC 4565) (Streptococcus sp.; strain GC 4565): 0.25 to 0.5 µg/mL
MIC Staphylococcus aureus (GC 1131) (Staphylococcus sp.; inoculum 5×10^5 CFU/mL): 2 to 4 µg/mL
MIC Staphylococcus aureus (ATCC 29213) (Staphylococcus sp.; strain ATCC 29213): 2 to 4 µg/mL
MIC Staphylococcus aureus (GC 1131) (Staphylococcus sp.): 2 to 4 µg/mL
MIC Staphylococcus aureus (GC 3051) (Staphylococcus sp.; strain GC 3051): 2 to 4 µg/mL
MIC Staphylococcus aureus (GC 3053) (Staphylococcus sp.; strain GC 3053): 4 to 8 µg/mL
MIC Staphylococcus aureus (GC 4541) (Staphylococcus sp.; strain GC 4541): 2 to 4 µg/mL
MIC Staphylococcus aureus (GC 4542) (Staphylococcus sp.; strain GC 4542): 1 to 4 µg/mL
MIC Staphylococcus aureus-SMITH (GC 4543) (Staphylococcus sp.; strain GC 4543): 2 to 4 µg/mL
MIC Staphylococcus aureus (GC 4544) (Staphylococcus sp.; strain GC 4544): 2 to 8 µg/mL
MIC Staphylococcus aureus (GC 4545) (Staphylococcus sp.; strain GC 4545): 2 to 4 µg/mL
MIC Staphylococcus haemolyticus (GC 4546) (Staphylococcus sp.; strain GC 4546): 0.5 to 2 µg/mL
MIC Coagulase Negative Staphylococcus (GC 4547) (Staphylococcus sp.; strain GC 4547): 1 to 2 µg/mL
MIC Coagulase Negative Staphylococcus (GC 4548) (Staphylococcus sp.; strain GC 4548): 1 to 2 µg/mL
MIC Coagulase Negative Staphylococcus (GC 4549) (Staphylococcus sp.; strain GC 4549): 1 µg/mL (≈ 0.701 µM)
MIC Coagulase Negative Staphylococcus (GC 4551) (Staphylococcus sp.; strain GC 4551): 2 to 4 µg/mL
MIC Coagulase Negative Staphylococcus (GC 6257) (Staphylococcus sp.; strain GC 6257): 1 to 2 µg/mL
MIC Staphylococcus aureus-SMITH (GC 4543) (Staphylococcus sp.; strain SMITH GC 4543): 2 to 4 µg/mL
